Measurements as given in patent publication US20210038579A1, “Treatment Of Patients With Classic Fabry Disease” (Amicus Therapeutics, Inc., priority 2018, published 2021).
Numbering of substitutions follows the chain as printed.

Experiments:
Test in all cases: HEK assay: α-Gal A activity in HEK-293 cell lysate with migalastat
Format in all cases: cell-based
[1] = target: T1, α-Gal A mutant form p.Asp244Asn (c.730 G > A) (Homo sapiens, UniProt P06280, D244N)
T1 construct: expressed in transfected cells; host or cells: HEK-293
T1 sequence (P06280 32-429 D244N): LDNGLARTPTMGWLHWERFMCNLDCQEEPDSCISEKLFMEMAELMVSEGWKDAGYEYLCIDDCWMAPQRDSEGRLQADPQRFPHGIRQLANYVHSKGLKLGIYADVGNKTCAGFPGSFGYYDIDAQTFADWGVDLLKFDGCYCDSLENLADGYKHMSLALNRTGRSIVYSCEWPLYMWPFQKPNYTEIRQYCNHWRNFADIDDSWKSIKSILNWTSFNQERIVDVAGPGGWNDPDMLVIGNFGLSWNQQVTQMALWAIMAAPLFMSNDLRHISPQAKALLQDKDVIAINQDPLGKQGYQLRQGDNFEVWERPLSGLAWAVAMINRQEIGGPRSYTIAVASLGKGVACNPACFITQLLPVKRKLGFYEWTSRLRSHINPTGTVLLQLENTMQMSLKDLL
Method: (§1) Such mutations are also referred to herein as “HEK assay amenable” mutations.
(§2) In this assay, cDNA constructs are created. The corresponding α-Gal A mutant forms are transiently expressed in HEK-293 cells. Cells are then incubated±migalastat (17 nM to 1 mM) for 4 to 5 days. After, α-Gal A levels are measured in cell lysates using a synthetic fluorogenic substrate (4-MU-α-Gal) or by western blot. This has been done for known disease-causing missense or small in-frame insertion/deletion mutations.

[2] = target: T2, α-Gal A mutant form p.Asp55Val/Glu57Leu (c.164 A > T; c.170 A > T) (Homo sapiens, UniProt P06280, D55V/Q57L)
T2 construct: expressed in transfected cells; host or cells: HEK-293
T2 sequence (P06280 32-429 D55V/Q57L): T1 sequence (P06280 32-429 D244N) with D24V, Q26L, N213D
Method: as §1, §2

[3] = target: T3, α-Gal A mutant form p.Gly258Arg (c.772 G > C) (Homo sapiens, UniProt P06280, G258R)
T3 construct: expressed in transfected cells; host or cells: HEK-293
T3 sequence (P06280 32-429 G258R): T1 sequence (P06280 32-429 D244N) with N213D, G227R
Method: as §1, §2

[4] = target: T4, α-Gal A mutant form p.Leu243Phe (c.729 G > C) (Homo sapiens, UniProt P06280, L243F)
T4 construct: expressed in transfected cells; host or cells: HEK-293
T4 sequence (P06280 32-429 L243F): T1 sequence (P06280 32-429 D244N) with L212F, N213D
Method: as §1, §2

[5] = target: T5, α-Gal A mutant form p.Pro259Arg (c.776 C > G) (Homo sapiens, UniProt P06280, P259R)
T5 construct: expressed in transfected cells; host or cells: HEK-293
T5 sequence (P06280 32-429 P259R): T1 sequence (P06280 32-429 D244N) with N213D, P228R
Method: as §1, §2

[6] = +10 μM migalastat, HEK-293 cell lysate, mean ± SEM, n = 20
[7] = HEK293, 10 μM migalastat minus baseline, read-out: Absolute increase at 10 μM (% WT)

Q: With OC[C@H]1NC[C@H](O)[C@@H](O)[C@H]1O [migalastat] as the compound, how does the “α-Gal A activity at 10 μM (fold over baseline)” value ([1]; 10 μM migalastat) read?
A: Its value is 1.58 fold over baseline.

Q: And the “+Migalastat α-Gal A activity” value [1, 6]?
A: Its value is 16321 ± 402 nmol/mg/h.

Q: And the “+Migalastat α-Gal A activity % WT” value [1, 6]?
A: Its value is 48.7 ± 1.7 % WT.

Q: And the activation at 10 µM [1, 7]?
A: The activation at 10 µM was 17.8%.

Q: What about the activation at 10 µM ([2]; 10 μM migalastat minus baseline, read-out: Absolute increase at 10 μM (% WT)) of the same compound?
A: Its activation at 10 µM is 8%.

Q: What about the “+Migalastat α-Gal A activity” value [2, 6] of the same compound?
A: The value was 2526 ± 287 nmol/mg/h.

Q: And the “+Migalastat α-Gal A activity % WT” value [2, 6]?
A: The value was 8.0 ± 0.5 % WT.

Q: What about the “α-Gal A activity at 10 μM (fold over baseline)” value ([3]; 10 μM migalastat) of the same compound?
A: The value was 2.37 fold over baseline.

Q: And the “+Migalastat α-Gal A activity” value [3, 6]?
A: Its value is 22630 ± 801 nmol/mg/h.

Q: And the “+Migalastat α-Gal A activity % WT” value [3, 6]?
A: The value was 78.1 ± 5.8 % WT.

Q: What about the activation at 10 µM [3, 7] of the same compound?
A: Its activation at 10 µM is 45.5%.

Q: And the “α-Gal A activity at 10 μM (fold over baseline)” value ([4]; 10 μM migalastat)?
A: Its value is 5.33 fold over baseline.

Q: And the “+Migalastat α-Gal A activity” value [4, 6]?
A: The value was 14370 ± 618 nmol/mg/h.

Q: And the “+Migalastat α-Gal A activity % WT” value [4, 6]?
A: Its value is 42.3 ± 1.4 % WT.

Q: What about the activation at 10 µM [4, 7] of the same compound?
A: The activation at 10 µM was 34.4%.

Q: And the “α-Gal A activity at 10 μM (fold over baseline)” value ([5]; 10 μM migalastat)?
A: The value was 2.64 fold over baseline.

Q: And the “+Migalastat α-Gal A activity” value [5, 6]?
A: Its value is 17645 ± 515 nmol/mg/h.

Q: And the “+Migalastat α-Gal A activity % WT” value [5, 6]?
A: Its value is 60.3 ± 3.8 % WT.

Q: And the activation at 10 µM [5, 7]?
A: Its activation at 10 µM is 37%.
